Source: BindingDB's records for doi:10.1021/jm00022a006 (Eli Lilly, 1995)

Biological target: Leukotriene B4 receptor 1 (Cavia porcellus)
Assay: Binding affinity towards LTB4 receptor guinea pig spleen cells using [3H]LTB4 as radioligand

| Ki [nM] | Compound |
| --- | --- |
| 5.9 | CCCc1c(OCCCOc2cc(O)c(-c3ccc(F)cc3)cc2CC)cccc1[S+]([O-])c1ccccc1C(=O)O (stereo not drawn) [2-{3-[3-(5-Ethyl-4'-fluoro-2-hydroxy-biphenyl-4-yloxy)-propoxy]-2-propyl-benzenesulfinyl}-benzoic acid] |
| 33 | CCCc1c(OCCCOc2cc(O)c(-c3ccc(F)cc3)cc2CC)cccc1C(=O)c1ccccc1C(=O)O [2-{3-[3-(5-Ethyl-4'-fluoro-2-hydroxy-biphenyl-4-yloxy)-propoxy]-2-propyl-benzoyl}-benzoic acid] |
| 42 | CCCc1c(OCCCOc2cc(O)c(-c3ccc(F)cc3)cc2CC)cccc1Sc1ccccc1C(=O)O [2-{3-[3-(5-Ethyl-4'-fluoro-2-hydroxy-biphenyl-4-yloxy)-propoxy]-2-propyl-phenylsulfanyl}-benzoic acid] |
